Columns and labels:
[1] = target: hFASN enzyme (full length) (Homo sapiens (Human), UniProt P49327); test: Fatty Acid Synthase (FASN) Inhibition Scintillation Proximity Assay; type: biochemical; settings: 3H-acetyl-CoA and malonyl-CoA substrates, SPA, mean if tested more than once
Procedure, shortened: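 Full-length human FASN (300 ng, in-house purified) in 100 mM KH2PO4 pH 7.5, 1 mM DTT converts 3H-acetyl-CoA plus malonyl-CoA to hydrophobic 3H-palmitate, captured by streptavidin imaging beads and read on LEADseeker at 610 nm after ≥24 h. Compounds tested 0.01–30 μM; data normalized to plate controls and fitted to 4-parameter logistic curves.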

[2] = target: FASN Keto-reductase Domain (hFASN enzyme, full length) (Homo sapiens (Human), UniProt P49327); test: Fatty Acid Synthase Keto-reductase Domain (FASN KR) Inhibition; type: biochemical; settings: NADPH oxidation at 340 nm, ethyl acetoacetate substrate
FASN Keto-reductase Domain (hFASN enzyme, full length), sequence (P49327 whole entry, the tested form may be a part): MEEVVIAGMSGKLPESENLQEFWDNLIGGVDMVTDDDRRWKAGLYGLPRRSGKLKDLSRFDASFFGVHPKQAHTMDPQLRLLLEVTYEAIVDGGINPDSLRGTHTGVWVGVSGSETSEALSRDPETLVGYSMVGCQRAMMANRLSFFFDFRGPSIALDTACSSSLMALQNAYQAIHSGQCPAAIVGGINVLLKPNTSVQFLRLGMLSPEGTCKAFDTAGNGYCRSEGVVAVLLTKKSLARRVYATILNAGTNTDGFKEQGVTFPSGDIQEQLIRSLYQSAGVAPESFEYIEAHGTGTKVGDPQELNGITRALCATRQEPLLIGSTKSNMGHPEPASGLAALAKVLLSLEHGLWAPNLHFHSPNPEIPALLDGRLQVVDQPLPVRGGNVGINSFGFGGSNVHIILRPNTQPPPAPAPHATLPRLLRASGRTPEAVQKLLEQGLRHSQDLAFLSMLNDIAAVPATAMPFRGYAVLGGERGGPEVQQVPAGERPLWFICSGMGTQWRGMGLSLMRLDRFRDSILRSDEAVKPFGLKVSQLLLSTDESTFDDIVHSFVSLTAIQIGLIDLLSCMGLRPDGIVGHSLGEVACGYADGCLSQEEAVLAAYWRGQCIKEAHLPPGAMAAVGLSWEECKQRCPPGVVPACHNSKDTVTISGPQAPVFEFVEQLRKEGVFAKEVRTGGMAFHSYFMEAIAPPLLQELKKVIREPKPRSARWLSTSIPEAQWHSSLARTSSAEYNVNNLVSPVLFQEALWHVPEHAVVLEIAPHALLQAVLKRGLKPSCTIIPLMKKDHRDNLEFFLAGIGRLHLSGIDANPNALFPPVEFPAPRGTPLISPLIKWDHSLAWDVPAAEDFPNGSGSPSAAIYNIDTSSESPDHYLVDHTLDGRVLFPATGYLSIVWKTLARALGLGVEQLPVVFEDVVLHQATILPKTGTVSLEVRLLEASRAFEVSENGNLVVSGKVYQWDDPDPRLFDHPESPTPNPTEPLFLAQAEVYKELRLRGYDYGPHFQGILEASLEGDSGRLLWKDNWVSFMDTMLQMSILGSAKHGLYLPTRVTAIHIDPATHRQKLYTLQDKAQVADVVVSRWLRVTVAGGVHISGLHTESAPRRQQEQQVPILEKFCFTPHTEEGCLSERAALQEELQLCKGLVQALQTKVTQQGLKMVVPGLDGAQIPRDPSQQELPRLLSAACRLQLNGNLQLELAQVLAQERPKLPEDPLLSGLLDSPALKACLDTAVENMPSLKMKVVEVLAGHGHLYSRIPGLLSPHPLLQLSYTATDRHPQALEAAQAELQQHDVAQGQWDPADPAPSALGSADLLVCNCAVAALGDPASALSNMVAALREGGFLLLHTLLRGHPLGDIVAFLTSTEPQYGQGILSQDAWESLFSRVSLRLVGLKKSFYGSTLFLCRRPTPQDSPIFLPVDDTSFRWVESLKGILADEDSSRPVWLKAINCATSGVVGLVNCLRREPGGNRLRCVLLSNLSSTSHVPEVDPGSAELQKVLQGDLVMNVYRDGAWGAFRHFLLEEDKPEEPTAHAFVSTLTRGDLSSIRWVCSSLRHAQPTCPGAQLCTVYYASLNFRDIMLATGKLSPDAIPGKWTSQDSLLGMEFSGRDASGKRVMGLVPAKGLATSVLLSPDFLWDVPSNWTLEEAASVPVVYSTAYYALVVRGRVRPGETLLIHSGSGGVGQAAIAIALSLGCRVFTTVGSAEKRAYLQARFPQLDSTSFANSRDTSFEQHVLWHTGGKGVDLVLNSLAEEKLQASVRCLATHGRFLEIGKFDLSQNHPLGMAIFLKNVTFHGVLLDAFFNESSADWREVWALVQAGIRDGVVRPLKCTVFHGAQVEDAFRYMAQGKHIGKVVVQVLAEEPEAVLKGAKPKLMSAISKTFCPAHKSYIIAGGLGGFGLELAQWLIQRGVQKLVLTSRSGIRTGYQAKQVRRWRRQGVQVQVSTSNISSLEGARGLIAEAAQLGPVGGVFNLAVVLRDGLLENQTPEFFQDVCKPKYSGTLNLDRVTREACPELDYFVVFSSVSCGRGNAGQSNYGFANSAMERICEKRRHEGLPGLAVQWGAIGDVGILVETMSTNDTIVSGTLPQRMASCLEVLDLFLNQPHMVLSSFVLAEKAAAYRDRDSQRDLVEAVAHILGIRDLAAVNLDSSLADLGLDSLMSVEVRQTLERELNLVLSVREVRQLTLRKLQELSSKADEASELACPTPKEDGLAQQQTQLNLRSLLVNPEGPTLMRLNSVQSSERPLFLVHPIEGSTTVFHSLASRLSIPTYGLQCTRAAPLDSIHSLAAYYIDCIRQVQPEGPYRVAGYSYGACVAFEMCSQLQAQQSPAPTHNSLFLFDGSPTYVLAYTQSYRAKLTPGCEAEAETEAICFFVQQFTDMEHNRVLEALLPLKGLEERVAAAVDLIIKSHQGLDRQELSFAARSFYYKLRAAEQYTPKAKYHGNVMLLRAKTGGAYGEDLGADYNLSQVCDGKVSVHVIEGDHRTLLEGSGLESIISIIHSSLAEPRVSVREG
Protocol: After 20 minutes incubation at room temperature the plate was measured again (T2).
The decrease in absorbance was calculated as (Absorbance before incubation T1)−(Absorbance following incubation T2).
Raw data generated by the instrument were normalized to % Controlmin values, which were calculated as: % Controlmin=100*(x−mLC)/(mHC−mLC)
where mLC and mHC were the means of the low control wells and high control wells on the plate, after manual exclusion of outliers. A plot of Controlmin versus test compound concentration was fitted to a 4-parameter logistic curve using a non-linear least squares regression method.

hFASN enzyme (full length), sequence (P49327 whole entry): as the sequence (P49327 whole entry, the tested form may be a part) above

Compound	Human FASN pIC50 [1]	FASN Keto-reductase Domain pIC50 [2]
CC1(C)N=C(c2ccc(-c3n[nH]c4ccccc34)cc2F)N(C[C@@H]2CCN(C(=O)C3CC3)C2)C1=O [Compound 57, (R)-1-((1-(cyclopropanecarbonyl)pyrrolidin-3-yl)methyl)-2-(2-fluoro-4-(1H-indazol-3-yl)phenyl)-4,4-dimethyl-1H-imidazol-5(4H)-one]	6.48	5.56
CC1(C)N=C(c2ccc(-c3c[nH]c4ccccc34)cc2F)N(CC2CN(C(=O)C3CC3)C2)C1=O [Compound 62, 1-((1-(cyclopropanecarbonyl)azetidin-3-yl)methyl)-2-(2-fluoro-4-(1H-indol-3-yl)phenyl)-4,4-dimethyl-1H-imidazol-5(4H)-one]	6.69	6.26
CC1(C)N=C(c2ccc(-c3c[nH]c4ccccc34)cc2F)N(C[C@@H]2CCN(C(=O)C3CC3)C2)C1=O [Compound 63, (R)-1-((1-(cyclopropanecarbonyl)pyrrolidin-3-yl)methyl)-2-(2-fluoro-4-(1H-indol-3-yl)phenyl)-4,4-dimethyl-1H-imidazol-5(4H)-one]	7.16	6.73
CC1(C)N=C(c2ccc(-c3c[nH]c4ccccc34)cc2)N(C[C@@H]2CCN(C(=O)C3CC3)C2)C1=O [Compound 65, (R)-2-(4-(1H-indol-3-yl)phenyl)-1-((1-(cyclopropanecarbonyl)pyrrolidin-3-yl)methyl)-4,4-dimethyl-1H-imidazol-5(4H)-one]	6.64	6.14
CC1(C(=O)N2CC(CN3C(=O)C(C)(C)N=C3c3ccc(-c4ccc5cc(F)ccc5c4)cc3F)C2)CC1 [Compound 72, 2-(2-fluoro-4-(6-fluoronaphthalen-2-yl)phenyl)-4,4-dimethyl-1-((1-(1-methylcyclopropanecarbonyl)azetidin-3-yl)methyl)-1H-imidazol-5(4H)-one]	7.45	7.23
Cn1ncc2cc(-c3ccc(C4=NC(C)(C)C(=O)N4C[C@@H]4CCN(C(=O)C5(C)CC5)C4)c(F)c3)ccc21 [Compound 73, (R)-2-(2-fluoro-4-(1-methyl-1H-indazol-5-yl)phenyl)-4,4-dimethyl-1-((1-(1-methylcyclopropanecarbonyl)pyrrolidin-3-yl)methyl)-1H-imidazol-5(4H)-one]	7.18	7.17
Cn1cc(-c2ccc(-c3ccc(C4=NC(C)(C)C(=O)N4C[C@@H]4CCN(C(=O)C5(C)CC5)C4)c(F)c3)cc2)cn1 [Compound 74, (R)-2-(3-fluoro-4′-(1-methyl-1H-pyrazol-4-yl)-[1,1′-biphenyl]-4-yl)-4,4-dimethyl-1-((1-(1-methylcyclopropanecarbonyl)pyrrolidin-3-yl)methyl)-1H-imidazol-5(4H)-one]	7.26	7.38
Cc1cc(-c2ccc3c(cnn3C)c2)ccc1C1=NC(C)(C)C(=O)N1CC1CN(C(=O)C2(C)CC2)C1 [Compound 77, 4,4-dimethyl-2-(2-methyl-4-(1-methyl-1H-indazol-5-yl)phenyl)-1-((1-(1-methylcyclopropanecarbonyl)azetidin-3-yl)methyl)-1H-imidazol-5(4H)-one]	6.82	6.44
Cn1ncc2cc(-c3ccc(C4=NC(C)(C)C(=O)N4CC4CN(C(=O)C5(O)CC5)C4)c(F)c3)ccc21 [Compound 78, 2-(2-fluoro-4-(1-methyl-1H-indazol-5-yl)phenyl)-1-((1-(1-hydroxycyclopropanecarbonyl)azetidin-3-yl)methyl)-4,4-dimethyl-1H-imidazol-5(4H)-one]	6.61	6.19
CC1(C)N=C(c2ccc(-c3ccc4cc(F)ccc4c3)cc2F)N(CC2CN(C(=O)C3(O)CC3)C2)C1=O [Compound 79, 2-(2-fluoro-4-(6-fluoronaphthalen-2-yl)phenyl)-1-((1-(1-hydroxycyclopropanecarbonyl)azetidin-3-yl)methyl)-4,4-dimethyl-1H-imidazol-5(4H)-one]	7.52	6.92
Cc1cc(-c2ccc3c(cnn3C)c2)ccc1C1=NC(C)(C)C(=O)N1C[C@@H]1CCN(C(=O)C2(C)CC2)C1 [Compound 80, (R)-4,4-dimethyl-2-(2-methyl-4-(1-methyl-1H-indazol-5-yl)phenyl)-1-((1-(1-methylcyclopropanecarbonyl)pyrrolidin-3-yl)methyl)-1H-imidazol-5(4H)-one]	7.20	6.96
Cn1cc(-c2ccc(-c3ccc(C4=NC(C)(C)C(=O)N4CC4CN(C(=O)C5(O)CC5)C4)c(F)c3)cc2)cn1 [Compound 81, 2-(3-fluoro-4′-(1-methyl-1H-pyrazol-4-yl)-[1,1′-biphenyl]-4-yl)-1-((1-(1-hydroxycyclopropanecarbonyl)azetidin-3-yl)methyl)-4,4-dimethyl-1H-imidazol-5(4H)-one]	6.28	6.10
Cc1cc(-c2ccc3cc(F)ccc3c2)ccc1C1=NC(C)(C)C(=O)N1CC1CN(C(=O)C2(C)CC2)C1 [Compound 82, 2-(4-(6-fluoronaphthalen-2-yl)-2-methylphenyl)-4,4-dimethyl-1-((1-(1-methylcyclopropanecarbonyl)azetidin-3-yl)methyl)-1H-imidazol-5(4H)-one]	7.47	7.30
Cc1cc(-c2ccc3c(c2)ncn3C)ccc1C1=NC(C)(C)C(=O)N1CC1CN(C(=O)C2(C)CC2)C1 [Compound 83, 4,4-dimethyl-2-(2-methyl-4-(1-methyl-1H-benzo[d]imidazol-5-yl)phenyl)-1-((1-(1-methylcyclopropanecarbonyl)azetidin-3-yl)methyl)-1H-imidazol-5(4H)-one]	6.99	6.76
Cc1cc(-c2ccc(-c3cnn(C)c3)cc2)ccc1C1=NC(C)(C)C(=O)N1C[C@@H]1CCN(C(=O)C2(C)CC2)C1 [Compound 84, (R)-4,4-dimethyl-2-(3-methyl-4′-(1-methyl-1H-pyrazol-4-yl)-[1,1′-biphenyl]-4-yl)-1-((1-(1-methylcyclopropanecarbonyl)pyrrolidin-3-yl)methyl)-1H-imidazol-5(4H)-one]	7.27	7.27
Cc1cc(-c2ccc3c(c2)ncn3C)ccc1C1=NC(C)(C)C(=O)N1C[C@@H]1CCN(C(=O)C2(C)CC2)C1 [Compound 85, (R)-4,4-dimethyl-2-(2-methyl-4-(1-methyl-1H-benzo[d]imidazol-5-yl)phenyl)-1-((1-(1-methylcyclopropanecarbonyl)pyrrolidin-3-yl)methyl)-1H-imidazol-5(4H)-one]	7.10	6.80

Reference: patent US9718813B2, “Imidazolin-5-one derivative useful as FASN inhibitors for the treatment of cancer” (Janssen Pharmaceutica, NV, priority 2013, dated 2017)
